Values of other authors in article PMC4610388 (European journal of medicinal chemistry, 2015).

Columns and labels:
E. coli DHFR = E. coli DHFR (Escherichia coli, UniProt P0ABQ4); conditions: previous study from the authors' lab
[1] = system: mammalian dihydrofolate reductases

Sequence of E. coli DHFR (P0ABQ4 whole entry): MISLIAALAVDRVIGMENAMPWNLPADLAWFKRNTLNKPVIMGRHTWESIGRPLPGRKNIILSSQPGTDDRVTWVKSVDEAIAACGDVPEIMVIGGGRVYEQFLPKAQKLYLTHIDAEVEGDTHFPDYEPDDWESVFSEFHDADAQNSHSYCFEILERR

| Compound | slow-onset tight binding behaviour (E. coli DHFR) | inhibition of mammalian dihydrofolate reductases [1] |
| --- | --- | --- |
| Nc1nc(N)c2c(ccc3[nH]ccc32)n1 [NSC339578, 7H–pyrrolo [3,2-f] quinazoline-1,3-diamine] | does not show slow-onset of inhibition |  |
| Nc1nnc(-c2cccc(Cl)c2Cl)c(N)n1 [Lamotrigine, 6-(2,3-dichlorophenyl)-1,2,4-triazine-3,5-diamine] |  | weakly inhibit |
